Measured values published in publication PMC9865501, “Design and Synthesis of Scopoletin Sulfonate Derivatives as Potential Insecticidal Agents” (Molecules, 2023).
Values after ≈ are worked out from the molar mass of the structure shown. Read-outs that look alike come from different tables or passages of the source.

What was measured:
AChE = target: T1, AChE (Electrophorus electricus, UniProt O42275); experiment: In vitro AChE inhibition (ELISA kit); assay type: biochemical, electric eels
T1 construct: purchased Sigma–Aldrich Chemie GmbH (Buchs, Switzerland)
Description: The effects of the title compounds on the in vitro AChE activity were evaluated using ELISA technology. AChE derived from electric eels was purchased from Sigma–Aldrich Chemie GmbH (Buchs, Switzerland). Briefly, the AChE was preincubated with different concentrations (500, 250, 125, 62.5, 31.25, 15.625, and 7.8125 μg/mL) of the compounds in PBS solution. Then, the AChE activities after incubation were measured using the corresponding ELISA kit according to the manufacturer’s instructions (Jiancheng, Nanjing, China). The detection was performed using a multifunctional microplate reader (SpectraMax® M2e, Thermo Scientific, Waltham, MA, USA).

[1] = Toxicity to brine shrimp Artemia; assay type: in vivo, Artemia salina; settings: Artemia salina (brine shrimp), in vivo, other: immersion in test solution
Description: (§1) The toxicity of the title compounds to the brine shrimp A. salina was evaluated according to the reported method. […] Subsequently, approximately 50 hatched (10 h instar) brine shrimp were transferred into each pore of a 24-well plate filled with the test solutions. Finally, the brine shrimp were reared in an illumination incubator (28 ± 1 °C, 12 h light and 12 h dark alternatively) for 24 h. DMSO—1% Tween 20 was used as a blank control. Each treatment was conducted in triplicate. The dead insects were recorded under a stereoscope, and the corrected mortalities of A. salina treated with the compounds were calculated.

T. cinnabarinus = experiment: Acaricidal activity against T. cinnabarinus (leaf spray on broad bean, 72 h); assay type: in vivo, Tetranychus cinnabarinus; settings: for LC50: Tetranychus cinnabarinus; for acaricidal toxicity relative to compound 5: compared with compound 5
Description: An acaricidal activity assay of the test compounds against mites was conducted according to procedures outlined in the literature. […] The stock solution was then diluted to a series of working concentrations with 1% Tween 80 to obtain the test solutions. Subsequently, the leaves of two-leaf-stage broad beans were inoculated with 150–200 female adult T. cinnabarinus mites and reared in a greenhouse (26 ± 1 °C, 75–80% RH, 16 h light and 8 h dark alternatively) for 8 h. The test solution of the compound was then evenly sprayed on these leaves, which were then cultivated in the greenhouse for 72 h. In the blank control group, Tween 80 (1%) was used instead of the treatment solution. Cyetpyrafen (CAS NO. 1253429-01-4) was used as a positive control. Each treatment was repeated three times. The dead insects were recorded under a stereoscope, and the corrected mortalities of mites treated with the compounds were calculated.

A. salina = experiment: Toxicity to brine shrimp Artemia; assay type: in vivo, Artemia salina
Description: as §1

[2] = read-out: Lethal activity to Artemia LC50
[3] = 12 h, read-out: Lethal activity to Artemia LC50
[4] = 72 h, Table S1, read-out: Acaricidal activity LC50
[5] = 72 h, main text and Figure 5, read-out: LC50 against T. cinnabarinus

T1 sequence (O42275 24-633): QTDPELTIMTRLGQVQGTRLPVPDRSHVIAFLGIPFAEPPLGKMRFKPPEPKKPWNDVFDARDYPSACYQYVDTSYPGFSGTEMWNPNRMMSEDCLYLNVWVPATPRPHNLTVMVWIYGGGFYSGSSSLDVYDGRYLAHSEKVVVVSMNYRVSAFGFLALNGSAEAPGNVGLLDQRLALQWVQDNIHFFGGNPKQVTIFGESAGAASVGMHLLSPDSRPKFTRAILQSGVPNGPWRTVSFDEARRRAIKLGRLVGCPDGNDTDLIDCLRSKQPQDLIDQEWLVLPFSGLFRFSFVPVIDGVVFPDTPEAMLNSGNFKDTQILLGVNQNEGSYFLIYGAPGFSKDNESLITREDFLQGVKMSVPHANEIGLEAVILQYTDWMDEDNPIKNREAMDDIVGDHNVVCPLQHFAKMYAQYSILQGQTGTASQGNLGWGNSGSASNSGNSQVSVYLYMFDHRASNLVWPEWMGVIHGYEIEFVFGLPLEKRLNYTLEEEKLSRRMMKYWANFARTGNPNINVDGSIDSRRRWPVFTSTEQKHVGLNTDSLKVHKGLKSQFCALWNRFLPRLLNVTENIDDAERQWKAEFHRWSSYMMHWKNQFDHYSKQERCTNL

| SMILES | IC50 (AChE) [µM] | LC50 at 6 h [1, 2] [µg/mL] | LC50 at 12 h [1, 3] [µg/mL] | LC50 (T. cinnabarinus; [4]) [µg/mL] | LC50 at 12 h ([1]; abstract (equals the 12 h value), read-out: LC50 against A. salina) [µg/mL] | LC50 (T. cinnabarinus; [5]) [µg/mL] | acaricidal toxicity relative to compound 5 (T. cinnabarinus) | AChE inhibition IC50 (AChE) [µg/mL] | Lethal activity to Artemia LC50 (A. salina; 6 h) [µg/mL] | Lethal activity to Artemia LC50 (A. salina; 12 h) [µg/mL] | LC50 against T. cinnabarinus (T. cinnabarinus; 72 h, main text and Figure 5) [µg/mL] |
| --- | --- | --- | --- | --- | --- | --- | --- | --- | --- | --- | --- |
| COc1cc2ccc(=O)oc2cc1O [Compound 4, 7-hydroxy-6-methoxy-2H-chromen-2-one] | 551 | 27.2 (≈ 142 µM) | 14.2 (≈ 73.9 µM) | 144 (≈ 749 µM) | – | – | – | – | – | – | – |
| COc1cc2ccc(=O)oc2cc1OS(=O)(=O)c1ccccc1 [Compound 4a] | 431 | 47 (≈ 141 µM) | 29.1 (≈ 87.6 µM) | 448 (≈ 1350 µM) | – | – | – | – | – | – | – |
| COc1ccc(S(=O)(=O)Oc2cc3oc(=O)ccc3cc2OC)cc1 [Compound 4b] | 304 | 38.6 (≈ 107 µM) | 18.2 (≈ 50.2 µM) | 209 (≈ 577 µM) | – | – | – | – | – | – | – |
| COc1cc2ccc(=O)oc2cc1OS(=O)(=O)c1ccc(F)cc1 [Compound 4c] | 362 | 91.5 (≈ 261 µM) | 56.3 (≈ 161 µM) | 318 (≈ 908 µM) | – | – | – | – | – | – | – |
| COc1cc2ccc(=O)oc2cc1OS(=O)(=O)c1ccc(Cl)cc1 [Compound 4d] | 222 | 33.6 (≈ 91.6 µM) | 16 (≈ 43.6 µM) | 529 (≈ 1440 µM) | – | – | – | – | – | – | – |
| COc1cc2ccc(=O)oc2cc1OS(=O)(=O)c1ccc(Br)cc1 [Compound 4e] | 343 | 157 (≈ 382 µM) | 89.8 (≈ 218 µM) | 636 (≈ 1550 µM) | – | – | – | – | – | – | – |
| COc1cc2ccc(=O)oc2cc1OS(=O)(=O)c1ccc(C(F)(F)F)cc1 [Compound 4f] | 420 | 109 (≈ 272 µM) | 75.6 (≈ 189 µM) | 441 (≈ 1100 µM) | – | – | – | – | – | – | – |
| COc1cc2ccc(=O)oc2cc1OS(=O)(=O)c1ccc([N+](=O)[O-])cc1 [Compound 4g] | 353 | 46.7 (≈ 124 µM) | 25.6 (≈ 67.8 µM) | 183 (≈ 485 µM) | – | – | – | – | – | – | – |
| COc1cc2ccc(=O)oc2cc1OS(=O)(=O)c1cc(Cl)c(Cl)cc1Cl [Compound 4h] | 421 | 131 (≈ 301 µM) | 125 (≈ 287 µM) | 832 (≈ 1910 µM) | – | – | – | – | – | – | – |
| COc1cc2ccc(=O)oc2cc1OS(=O)(=O)c1cccs1 [Compound 4i] | 432 | 76.5 (≈ 226 µM) | 45.1 (≈ 133 µM) | 489 (≈ 1450 µM) | – | – | – | – | – | – | – |
| COc1cc2ccc(=O)oc2cc1OS(=O)(=O)c1ccc2ccccc2c1 [Compound 4j] | 148 | 13.6 (≈ 35.6 µM) | – | – | 9.36 (≈ 24.5 µM) | 93 (≈ 243 µM) | – | – | – | – | – |
| COc1cc2cc(-c3ccc(F)cc3)c(=O)oc2cc1OS(=O)(=O)c1ccccc1 [Compound 5a] | 95.2 | 95.8 (≈ 225 µM) | 55.8 (≈ 131 µM) | – | – | 57 (≈ 134 µM) | approximately 2 times | – | – | – | – |
| COc1ccc(S(=O)(=O)Oc2cc3oc(=O)c(-c4ccc(F)cc4)cc3cc2OC)cc1 [Compound 5b] | 336 | 94.5 (≈ 207 µM) | 36.2 (≈ 79.3 µM) | 338 (≈ 741 µM) | – | – | – | – | – | – | – |
| COc1cc2cc(-c3ccc(F)cc3)c(=O)oc2cc1OS(=O)(=O)c1ccc(F)cc1 [Compound 5c] | 192 | 94.7 (≈ 213 µM) | 48.6 (≈ 109 µM) | 94 (≈ 212 µM) | – | – | – | – | – | – | – |
| COc1cc2cc(-c3ccc(F)cc3)c(=O)oc2cc1OS(=O)(=O)c1ccc(Cl)cc1 [Compound 5d] | 149 | 72.8 (≈ 158 µM) | 33.7 (≈ 73.1 µM) | 99 (≈ 215 µM) | – | – | – | – | – | – | – |
| COc1cc2cc(-c3ccc(F)cc3)c(=O)oc2cc1OS(=O)(=O)c1ccc(Br)cc1 [Compound 5e] | 141 | 114 (≈ 226 µM) | 79.5 (≈ 157 µM) | 80 (≈ 158 µM) | – | – | – | – | – | – | – |
| COc1cc2cc(-c3ccc(F)cc3)c(=O)oc2cc1OS(=O)(=O)c1ccc(C(F)(F)F)cc1 [Compound 5f] | 242 | 71.5 (≈ 145 µM) | 39.9 (≈ 80.7 µM) | 104 (≈ 210 µM) | – | – | – | – | – | – | – |
| COc1cc2cc(-c3ccc(F)cc3)c(=O)oc2cc1OS(=O)(=O)c1ccc([N+](=O)[O-])cc1 [Compound 5g] | 261 | 86.6 (≈ 184 µM) | 53.6 (≈ 114 µM) | 68 (≈ 144 µM) | – | – | approximately 2 times | – | – | – | – |
| COc1cc2cc(-c3ccc(F)cc3)c(=O)oc2cc1OS(=O)(=O)c1cc(Cl)c(Cl)cc1Cl [Compound 5h] | 198 | 106 (≈ 200 µM) | 57.6 (≈ 109 µM) | 96 (≈ 181 µM) | – | – | – | – | – | – | – |
| COc1cc2cc(-c3ccc(F)cc3)c(=O)oc2cc1OS(=O)(=O)c1cccs1 [Compound 5i] | 255 | 99.8 (≈ 231 µM) | 56.7 (≈ 131 µM) | 73 (≈ 169 µM) | – | – | approximately 2 times | – | – | – | – |
| COc1cc2cc(-c3ccc(F)cc3)c(=O)oc2cc1OS(=O)(=O)c1ccc2ccccc2c1 [Compound 5j] | 115 | 77.9 (≈ 163 µM) | 29.7 (≈ 62.3 µM) | – | – | 20 (≈ 42 µM) | ~5 times | – | – | – | – |
| COc1cc2cc(C(C)=O)c(=O)oc2cc1O [Compound 6, 3-acetyl-7-hydroxy-6-methoxy-2H-chromen-2-one] | 395 | 56.5 (≈ 241 µM) | 35.6 (≈ 152 µM) | 81 (≈ 346 µM) | – | 81 to 116 (≈ 346 to 495 µM) | – | – | – | – | – |
| COc1cc2cc(C(C)=O)c(=O)oc2cc1OS(=O)(=O)c1ccc(Cl)cc1 [Compound 6d] | 355 | 45.5 (≈ 111 µM) | 27.9 (≈ 68.2 µM) | 159 (≈ 389 µM) | – | – | – | – | – | – | – |
| COc1cc2cc(C(C)=O)c(=O)oc2cc1OS(=O)(=O)c1cc(Cl)c(Cl)cc1Cl [Compound 6h] | 275 | 48.5 (≈ 102 µM) | 33.9 (≈ 71 µM) | 107 (≈ 224 µM) | – | – | – | – | – | – | – |
| COc1cc2cc(C(=O)Nc3ccc(Br)cc3)c(=O)oc2cc1O [Compound 7, 3-(4-bromoaniline formyl)-7-hydroxy-6-methoxy-2H-chromen-2-one] | 197 | 52.3 (≈ 134 µM) | 32.3 (≈ 82.8 µM) | 82 (≈ 210 µM) | – | 81 to 116 (≈ 208 to 297 µM) | – | – | – | – | – |
| COc1cc2cc(C(=O)Nc3ccc(Br)cc3)c(=O)oc2cc1OS(=O)(=O)c1ccccc1 [Compound 7a] | 221 | 57.6 (≈ 109 µM) | 33.6 (≈ 63.4 µM) | 117 (≈ 221 µM) | – | – | – | – | – | – | – |
| COc1cc2cc(C(=O)Nc3ccc(Br)cc3)c(=O)oc2cc1OS(=O)(=O)c1ccc(Cl)cc1 [Compound 7d] | 174 | 54.2 (≈ 96 µM) | 39.4 (≈ 69.8 µM) | 89 (≈ 158 µM) | – | – | – | – | – | – | – |
| CCn1nc(C)cc1/C(OC(=O)C(C)(C)C)=C(/C#N)c1ccc(C(C)(C)C)cc1 [Cyetpyrafen, reference compound] | – | – | – | – | – | – | – | 14.06 ± 10.20 | 11.7 | 6.13 | 15.0 (≈ 38.1 µM) |
